Consider seven compounds from ChEMBL document CHEMBL4308854, “Novel indole-thiazolidinone conjugates: Design, synthesis and whole-cell phenotypic evaluation as a novel class of antimicrobial agents” (Eur J Med Chem, 2018).

The test system of data set [1] is Staphylococcus aureus. The data set can be described thus: Antibacterial activity against Staphylococcus aureus RCMB 010028 after 24 hrs by serial dilution method. To be noted: RCMB 010028, 24 h. The class given is functional.
Data set [2] has as its system Staphylococcus aureus. The data set can be described thus: Antibacterial activity against Staphylococcus aureus RCMB 010028 assessed as diameter of zone inhibition after 24 hrs by agar well diffusion assay. The class given is functional. In general terms: In agar diffusion tests the substance spreads into inoculated agar from a disc or well.
Data set [3] has as its system Pseudomonas aeruginosa. The data set can be described thus: Antibacterial activity against Pseudomonas aeruginosa RCMB 010043 assessed as diameter of zone inhibition after 24 hrs by agar well diffusion assay. The class given is functional.
In data set [4] the test system is Escherichia coli. The data set can be described thus: Antibacterial activity against Escherichia coli RCMB 010052 assessed as diameter of zone inhibition after 24 hrs by agar well diffusion assay. The class given is functional.
A further data set has as its system Enterococcus faecium. The data set can be described thus: Antibacterial activity against vancomycin-resistant Enterococcus faecium ATCC 700221 after 24 hrs by serial dilution method. The class given is functional. To be noted: ATCC 700221, 24 h.
The test system of data set [5] is Escherichia coli. The data set can be described thus: Antibacterial activity against Escherichia coli RCMB 010052 after 24 hrs by serial dilution method. The class given is functional. As to conditions: RCMB 010052, 24 h.
Data set [6] deals with Pseudomonas aeruginosa. The data set can be described thus: Antibacterial activity against Pseudomonas aeruginosa RCMB 010043 after 24 hrs by serial dilution method. The class given is functional. To be noted: RCMB 010043, 24 h.
Data set [7] deals with Staphylococcus aureus. The data set can be described thus: Antibacterial activity against methicillin-resistant Staphylococcus aureus ATCC 33592 after 24 hrs by serial dilution method. The class given is functional. As to conditions: ATCC 33592, 24 h.
Data set [8] deals with Aspergillus fumigatus. The data set can be described thus: Potency index, ratio of amphotericin B MIC to compound MIC for Aspergillus fumigatus RCMB 02568. The class given is functional.
Data set [9] deals with Candida albicans. The data set can be described thus: Antifungal activity against Candida albicans RCMB 05036 assessed as diameter of zone inhibition after 48 hrs by agar well diffusion assay. The class given is functional.
Data set [10] relates to Aspergillus fumigatus. The data set can be described thus: Antifungal activity against Aspergillus fumigatus RCMB 02568 assessed as diameter of zone inhibition after 48 hrs by agar well diffusion assay. The class given is functional.
Data set [11] deals with Mycobacterium tuberculosis. The data set can be described thus: Antitubercular activity against Mycobacterium tuberculosis RCMB 010126 clinical isolate after 4 days by microplate alamar blue assay. As to conditions: for MIC: Mycobacterium tuberculosis, RCMB 010126, 96 h. The class given is functional. For orientation: Alamar Blue is a resazurin reagent that responds to reducing activity.

Data set [12] has as its system Staphylococcus aureus. The data set can be described thus: Potency index, ratio of ciprofloxacin MIC to compound MIC for Staphylococcus aureus RCMB 010028. The class given is functional.
For data set [13], the system named is Aspergillus fumigatus. The data set can be described thus: Antifungal activity against Aspergillus fumigatus RCMB 02568 after 24 hrs by serial dilution method. The class given is functional. As to conditions: RCMB 02568, 24 h.
Data set [14] has as its system Mycobacterium tuberculosis. The data set can be described thus: Potency index, ratio of isoniazid MIC to compound MIC for antitubercular activity against Mycobacterium tuberculosis RCMB 010126 clinical isolate. The class given is functional.
Data set [15] is described as follows: Cytotoxicity against mouse RAW264.7 cells. The class given is cell-based.
The nature of data set [16]: Selectivity index, ratio of GI50 for mouse RAW264.7 cells to MIC for Mycobacterium aurum infected in mouse RAW264.7 cells. The class given is toxicity, cell-based. As to conditions: read-out: Selectivity Index.
Data set [17] has as its system Escherichia coli. The data set can be described thus: Potency index, ratio of ciprofloxacin MIC to compound MIC for Escherichia coli RCMB 010052. The class given is functional.
Data set [18] is described as follows: Stability in mouse RAW264.7 cells measured after 48 hrs. The class given is ADME, cell-based. As to conditions: raw264.7, 48 h.
For data set [19], the system named is Candida albicans. The data set can be described thus: Antifungal activity against Candida albicans RCMB 05036 after 24 hrs by serial dilution method. The class given is functional. As to conditions: RCMB 05036, 24 h.
Data set [20] has as its system Pseudomonas aeruginosa. The data set can be described thus: Potency index, ratio of ciprofloxacin MIC to compound MIC for Pseudomonas aeruginosa RCMB 010043. The class given is functional.
In another data set the test system is Mycolicibacterium aurum. The data set can be described thus: Antitubercular activity against Mycobacterium aurum infected in mouse RAW264.7 cells measured after 48 hrs. The class given is functional.
Data set [21] in a line: Selectivity index, ratio of IC50 for human WI38 cells to MIC for Mycobacterium tuberculosis RCMB 010126. The class given is toxicity. As to conditions: read-out: Selectivity Index.
The subject of data set [22] is Mycobacterium tuberculosis. The data set can be described thus: Antitubercular activity against Mycobacterium tuberculosis RCMB 010126 after 7 days by microplate alamar blue assay. The class given is functional. To be noted: RCMB 010126, 168 h.
Data set [23] has as its system Aspergillus fumigatus. The data set can be described thus: Potency index, ratio of amphotericin B MIC to compound MIC for antifungal activity against Aspergillus fumigatus RCMB 02568. The class given is functional.
Data set [24] is described as follows: Selectivity index, ratio of IC50 for human WI38 cells to MIC for Mycobacterium tuberculosis RCMB 010126 clinical isolate. The class given is toxicity. To be noted: read-out: Selectivity Index.
The next data set deals with WI-38. The data set can be described thus: Cytotoxicity against human WI38 cells by MTT assay. The class given is cell-based. Background: Formazan colour is commonly taken as a measure of viable cells.

What is called MIC is the smallest concentration in the dilution series that meets the test's criterion for growth inhibition. Low readings indicate greater potency, high ones weaker potency. In general, GI50 refers to the concentration that inhibits growth by half. The term IC50 denotes the concentration needed to halve the response being measured. A low value points to inhibition by little substance.

SMILES strings stand for the structures. Converted amounts (≈) assume the structure as drawn.

Take `O=C(O)c1cn(C2CC2)c2cc(N3CCNCC3)c(F)cc2c1=O` [CIPROFLOXACIN]: the MIC with Staphylococcus aureus [1] is 1.95 µg/mL (≈ 5.89 µM); with Enterococcus faecium, 3.9 µg/mL (≈ 11.8 µM); in the data set with Escherichia coli [5], 1.95 µg/mL (≈ 5.89 µM); with Pseudomonas aeruginosa [6], 3.9 µg/mL (≈ 11.8 µM). The “diameter of the inhibition zone (DIZ)” value was 22.2 mm in the data set on Staphylococcus aureus [2], 23.1 mm in the data set with Pseudomonas aeruginosa [3] and 24.3 mm in the data set with Escherichia coli [4].
Take `CN[C@H](CC(C)C)C(=O)N[C@H]1C(=O)N[C@@H](CC(N)=O)C(=O)N[C@H]2C(=O)N[C@H]3C(=O)N[C@H](C(=O)N[C@H](C(=O)O)c4cc(O)cc(O)c4-c4cc3ccc4O)[C@H](O)c3ccc(c(Cl)c3)Oc3cc2cc(c3O[C@@H]2O[C@H](CO)[C@@H](O)[C@H](O)[C@H]2O[C@H]2C[C@](C)(N)[C@H](O)[C@H](C)O2)Oc2ccc(cc2Cl)[C@H]1O` [VANCOMYCIN]: in the data set on Staphylococcus aureus [7], the MIC was found to be 1.95 µg/mL (≈ 1.35 µM).
For `CCOC(=O)c1sc(/N=C2\NC(=O)/C(=C3/C(=O)Nc4ccc(Cl)cc43)S2)nc1C`, the Ratio turned out to be 2 in the data set on Aspergillus fumigatus [8]; 2 with Staphylococcus aureus [12]; 2 in data set [14]; 2 with Escherichia coli [17]; 4 in the data set on Pseudomonas aeruginosa [20]. The “diameter of the inhibition zone (DIZ)” value with Candida albicans [9] worked out at 24.4 mm; with Staphylococcus aureus [2], 23.1 mm; in the data set on Aspergillus fumigatus [10] it was 22.7 mm; in the data set with Pseudomonas aeruginosa [3], 22.6 mm; in the data set on Escherichia coli [4] it was 23.2 mm. For the same compound, the MIC in the data set on Staphylococcus aureus [1] worked out at 0.98 µg/mL (≈ 2.18 µM); in data set [11] it was 0.39 µg/mL (≈ 0.869 µM); with Aspergillus fumigatus [13], 1.95 µg/mL (≈ 4.34 µM); with Candida albicans [19], 0.49 µg/mL (≈ 1.09 µM); in the data set with Escherichia coli [5], 0.98 µg/mL (≈ 2.18 µM); against Pseudomonas aeruginosa [6], 0.98 µg/mL (≈ 2.18 µM). The same compound came in with a minimum inhibitory concentration (MIC) against Mycolicibacterium aurum above 200 µg/mL. In addition, the “inhibition (INH)” value in [11] was found to be 56.34%. In [15], the GI50 is above 125 µg/mL. Besides, the selectivity ratio in [16] was below 0.625. Moreover, in [18], the Stability result is reported as “Stable”.
Regarding `CCOC(=O)c1sc(/N=C2\NC(=O)/C(=C/c3cccnc3)S2)nc1C`, the selectivity ratio in [21] amounted to 52.1. Moreover, the minimal inhibitory concentration (MIC) in data set [22] stood at 1.56 µg/mL (≈ 4.17 µM).
Regarding `CC(=O)c1sc(/N=C2\NC(=O)/C(=C3/C(=O)N(C)c4ccccc43)S2)nc1C`, the Ratio is recorded as 2 with Aspergillus fumigatus [8]; 2 with Staphylococcus aureus [12]; 2 in [14]; 2 in the data set on Aspergillus fumigatus [23]; 4 in the data set on Escherichia coli [17]; 4 in the data set on Pseudomonas aeruginosa [20]. The “diameter of the inhibition zone (DIZ)” value in the data set on Candida albicans [9] is listed as 25.1 mm; in the data set with Staphylococcus aureus [2] it was 23.4 mm; in the data set on Aspergillus fumigatus [10], 23.2 mm; in the data set with Pseudomonas aeruginosa [3], 23.2 mm; in the data set with Escherichia coli [4], 25.1 mm. For the same compound, the minimal inhibitory concentration (MIC) worked out at 0.98 µg/mL (≈ 2.46 µM) in the data set with Staphylococcus aureus [1]; 0.39 µg/mL (≈ 0.979 µM) in data set [11]; 0.98 µg/mL (≈ 2.46 µM) against Aspergillus fumigatus [13]; 15.6 µg/mL (≈ 39.2 µM) against Staphylococcus aureus [7]; 0.49 µg/mL (≈ 1.23 µM) in the data set with Candida albicans [19]; 62.5 µg/mL (≈ 157 µM) against Enterococcus faecium. In addition, the minimal inhibitory concentration (MIC) with Escherichia coli [5] was 0.49 µg/mL (≈ 1.23 µM); in the data set with Pseudomonas aeruginosa [6], 0.98 µg/mL (≈ 2.46 µM); in the data set with Mycolicibacterium aurum it was 50 µg/mL (≈ 125 µM). Also, the “inhibition (INH)” value in data set [11] is reported as 76.35%. In [15], this compound showed a concentration for 50% growth inhibition (GI50) above 250 µg/mL. Moreover, the selectivity ratio in [16] is above 5; in data set [24], 13. In addition, the Stability result in [18] is on record as “Stable”. In the data set on WI-38, half-maximal inhibition (IC50) was put at 5.3 µg/mL (≈ 13.3 µM).
For the compound `CC(=O)c1sc(/N=C2\NC(=O)/C(=C3/C(=O)Nc4ccc(Cl)cc43)S2)nc1C`, the Ratio in the data set on Aspergillus fumigatus [8] stood at 2; in the data set with Staphylococcus aureus [12], 2; with Aspergillus fumigatus [23], 2; in the data set with Escherichia coli [17] it was 4; in the data set on Pseudomonas aeruginosa [20], 4. Besides, the “diameter of the inhibition zone (DIZ)” value in the data set with Candida albicans [9] is 24.2 mm; in the data set with Staphylococcus aureus [2], 22.1 mm; with Aspergillus fumigatus [10] it was 22.9 mm; in the data set with Pseudomonas aeruginosa [3], 22.5 mm; in the data set with Escherichia coli [4] it was 24.3 mm. Also, the minimal inhibitory concentration (MIC) against Staphylococcus aureus [1] amounted to 0.98 µg/mL (≈ 2.34 µM); in data set [11] it was 0.78 µg/mL (≈ 1.86 µM); against Aspergillus fumigatus [13], 0.98 µg/mL (≈ 2.34 µM); with Candida albicans [19], 0.49 µg/mL (≈ 1.17 µM); against Escherichia coli [5] it was 0.49 µg/mL (≈ 1.17 µM); against Pseudomonas aeruginosa [6], 0.98 µg/mL (≈ 2.34 µM). Moreover, the “inhibition (INH)” value in data set [11] worked out at 74.32%.
`CC(=O)c1sc(/N=C2\NC(=O)/C(=C3/C(=O)N(Cc4ccccc4)c4ccc(Cl)cc43)S2)nc1C`: the Ratio turned out to be 2 with Aspergillus fumigatus [8]; 2 in the data set on Staphylococcus aureus [12]; 2 in data set [14]; 2 in the data set with Aspergillus fumigatus [23]; 4 in the data set with Escherichia coli [17]; 4 in the data set with Pseudomonas aeruginosa [20]. The “diameter of the inhibition zone (DIZ)” value in the data set on Candida albicans [9] was found to be 25.3 mm; in the data set on Staphylococcus aureus [2] it was 23.6 mm; with Aspergillus fumigatus [10], 23.6 mm; with Pseudomonas aeruginosa [3], 23.5 mm; with Escherichia coli [4], 25.6 mm. The minimum inhibitory concentration (MIC) was found to be 0.98 µg/mL (≈ 1.93 µM) in the data set with Staphylococcus aureus [1]; 0.39 µg/mL (≈ 0.766 µM) in data set [11]; 0.98 µg/mL (≈ 1.93 µM) against Aspergillus fumigatus [13]; 0.49 µg/mL (≈ 0.963 µM) with Candida albicans [19]; 0.49 µg/mL (≈ 0.963 µM) against Escherichia coli [5]; 0.98 µg/mL (≈ 1.93 µM) in the data set with Pseudomonas aeruginosa [6]. Besides, the “inhibition (INH)” value in data set [11] is reported as 80.34%.
